Measured values reported in PubChem BioAssay (NCI).
Values joined by “and” are separate entries in the source; they are usually repeats but may differ in a detail not shown here. Identical values can stand only once.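 Following 48 hours of exposure in 96-well plates, responses at five concentrations were used to interpolate endpoints linearly. GI50 = concentration required for 50% inhibition of growth. TGI denotes the concentration required for complete inhibition of growth.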

How the values were obtained:
Assay in all cases: inhibition of tumour cell growth, NCI panel, 48 h
[1] = test system: OVCAR-5 ovarian
[2] = test system: EKVX NSCLC
[3] = test system: HOP-62 NSCLC
[4] = test system: HCT-116 colon
[5] = test system: SNB-19 CNS
[6] = test system: SW-620 colon
[7] = test system: IGROV1 ovarian
[8] = test system: NCI-H460 lung
[9] = test system: 786-0 renal
[10] = test system: MDA-MB-435

O=[N+]([O-])c1cc(/C=N\NS(=O)(=O)c2ccc(Cl)cc2)c(O)c([N+](=O)[O-])c1
TGI [1]: > 100 µM | TGI [2]: > 100 µM | TGI [3]: > 100 µM | TGI [4]: > 100 µM | TGI [5]: 79.5 µM | TGI [6]: > 100 µM | TGI [7]: > 100 µM | TGI [8]: 54.4 µM | TGI [9]: > 100 µM

Cc1cc(Cl)cc2c1NC(=O)C2(O)CC(=O)c1ccc(Br)cc1 (configuration not stated)
TGI [1]: > 100 µM | TGI [2]: > 100 µM | TGI [3]: > 100 µM | TGI [4]: > 100 µM | TGI [5]: > 100 µM | TGI [6]: > 100 µM | TGI [7]: > 100 µM | TGI [8]: > 100 µM | TGI [9]: > 100 µM

CCCC(O)c1cn(-c2cccc(S(=O)(=O)O)c2)nn1 (configuration not stated)
TGI [1]: > 100 µM | TGI [2]: > 100 µM | TGI [3]: > 100 µM | TGI [4]: > 100 µM | TGI [5]: > 100 µM | TGI [6]: > 100 µM | TGI [7]: > 100 µM | TGI [8]: > 100 µM | TGI [9]: > 100 µM

CC(/C=C/C(=O)c1sc(C(N)=S)nc1C)=C\c1ccccc1
TGI [1]: > 100 µM | TGI [2]: > 100 µM | TGI [3]: > 100 µM | TGI [5]: 31.2 µM | TGI [7]: > 100 µM | TGI [8]: > 100 µM | TGI [9]: > 100 µM

COc1ccc(NC(=O)CC(=O)N/N=C(\C)c2cc3ccccc3oc2=O)cc1
TGI [2]: > 100 µM | TGI [3]: > 100 µM | TGI [4]: > 100 µM | TGI [5]: > 100 µM | TGI [6]: > 100 µM | TGI [7]: > 100 µM | TGI [8]: > 100 µM | TGI [9]: > 100 µM

CCCCNS(=O)(=O)c1ccc(-c2ccc3c(c2)-c2ccc(S(=O)(=O)NCCCC)cc2S3(=O)=O)cc1
TGI [1]: > 100 µM | TGI [2]: > 100 µM | TGI [3]: 37.3 µM | TGI [4]: 54.9 µM | TGI [6]: > 100 µM | TGI [7]: > 100 µM | TGI [8]: > 100 µM | TGI [9]: 27.9 µM

CCCCCCC(=O)C/C(CCC(=O)N(Cc1ccccc1)Cc1ccccc1)=N\NC(N)=O
TGI [1]: > 100 µM | TGI [2]: > 100 µM | TGI [3]: > 100 µM | TGI [4]: > 100 µM | TGI [5]: > 100 µM | TGI [6]: > 100 µM | TGI [7]: > 100 µM | TGI [8]: > 100 µM | TGI [9]: > 100 µM

COc1ccc(Br)c(CN2CCc3ccccc32)c1OS(=O)(=O)c1ccc(C)cc1
TGI [1]: > 100 µM | TGI [2]: > 100 µM | TGI [5]: > 100 µM | TGI [6]: > 100 µM | TGI [9]: > 100 µM

COc1ccc(N2C(=O)[C@@H](N=[N+]=[N-])[C@@H]2[C@H]2COC(C)(C)O2)cc1
TGI [1]: > 100 µM | TGI [2]: > 100 µM | TGI [3]: > 100 µM | TGI [4]: > 100 µM | TGI [5]: > 100 µM | TGI [6]: > 100 µM | TGI [7]: > 100 µM | TGI [8]: > 100 µM | TGI [9]: > 100 µM

O=C(O)c1c2c(cc3c(=O)c4ccccc4[nH]c13)CCCC2
TGI [1]: > 100 µM | TGI [2]: > 100 µM | TGI [3]: > 100 µM | TGI [4]: > 100 µM | TGI [5]: > 100 µM | TGI [6]: > 100 µM | TGI [7]: > 100 µM | TGI [8]: > 100 µM | TGI [9]: > 100 µM

N#C/C(=C/N1CCN(C(=O)c2ccco2)C1=S)C(=O)Nc1ccc(Cl)cc1
GI50 [3]: 25.7 µM | TGI [3]: > 50 µM | GI50 [4]: 15.2 µM | TGI [4]: > 50 µM | GI50 [5]: 27.6 µM | TGI [5]: > 50 µM | GI50 [6]: 17.3 µM | TGI [6]: > 50 µM | GI50 [7]: 25.3 µM | TGI [7]: > 50 µM | GI50 [8]: 19.9 µM | TGI [8]: > 50 µM | GI50 [10]: 15.2 µM | TGI [10]: > 50 µM | GI50 [9]: 17.4 µM | TGI [9]: > 50 µM

CC(C)C[C@H](NC(=O)Cn1cccc(CNC(=O)c2ccccc2)c1=O)B(O)O
GI50 [1]: 2.76 µM | TGI [1]: 38.9 µM | GI50 [3]: 1.21 µM | TGI [3]: 6.38 µM | GI50 [4]: 0.337 µM | TGI [4]: 2.65 µM | GI50 [5]: 0.495 µM | TGI [5]: > 100 µM | GI50 [6]: 0.345 µM | TGI [6]: 6.85 µM | GI50 [7]: 4.01 µM | TGI [7]: 45.8 µM | GI50 [8]: 2.65 µM | TGI [8]: 15.8 µM | GI50 [10]: 0.158 µM | TGI [10]: 0.355 µM | GI50 [9]: 1.06 µM | TGI [9]: > 61.5 µM

COc1ccc(-c2cc3ccccc3[nH]c2=O)cc1OC
TGI [1]: > 100 µM | TGI [2]: > 100 µM | TGI [3]: > 100 µM | TGI [4]: > 100 µM | TGI [5]: > 100 µM | TGI [6]: > 100 µM | TGI [7]: > 100 µM | TGI [8]: > 100 µM | TGI [9]: > 100 µM

CC1=NN(c2ccccc2)C(=O)C12[C@H](c1ccccc1)C2(C#N)C#N (some centres not stated)
TGI [1]: 24.2 µM | TGI [2]: 33.6 µM | TGI [3]: 31.1 µM | TGI [4]: 12 µM | TGI [5]: 29.5 µM | TGI [6]: 3.84 µM | TGI [7]: 28.1 µM | TGI [8]: 41.5 µM | TGI [9]: 6.18 µM

COc1cc(Cc2c(C)cc(OC)c3[nH]c4ccccc4c23)cc2c1[nH]c1ccccc12
TGI [1]: 12.5 µM | GI50 [3]: 5.49 µM | TGI [3]: 11 µM | GI50 [4]: 9.18 µM | TGI [4]: > 25 µM | TGI [5]: > 25 µM | GI50 [6]: 8.09 µM | TGI [6]: > 25 µM | GI50 [7]: 9.03 µM | TGI [7]: > 25 µM | GI50 [8]: 5.13 µM | TGI [8]: 12.1 µM | GI50 [9]: 5.38 µM | TGI [9]: 14.2 µM

Cc1cc(=O)[nH]c(N/N=C/c2ccccc2O)n1
GI50 [1]: 7.42 µM | TGI [1]: > 100 µM | GI50 [3]: 19 µM | TGI [3]: > 100 µM | GI50 [4]: 2.46 µM | TGI [4]: > 100 µM | GI50 [5]: 24.5 µM | TGI [5]: > 100 µM | GI50 [6]: 4.6 µM | TGI [6]: > 100 µM | GI50 [7]: 3.77 µM | TGI [7]: > 100 µM | GI50 [8]: 4.72 µM | TGI [8]: > 100 µM | GI50 [10]: 18.7 µM | TGI [10]: > 100 µM | GI50 [9]: 12.7 µM | TGI [9]: > 100 µM

O=C1C(Cl)=C(Cl)C(=O)N1c1ccc(Cl)c(Cl)c1Cl
TGI [1]: > 100 µM | TGI [2]: > 100 µM | TGI [3]: > 100 µM | TGI [4]: > 100 µM | TGI [5]: > 100 µM | TGI [6]: > 100 µM | TGI [7]: > 100 µM | TGI [8]: > 100 µM | TGI [9]: > 100 µM

Cc1ccc(SSCC(O)C(O)CSSc2ccc(C)cc2)cc1 (configuration not stated)
TGI [1]: 30.2 µM and 38.4 µM | TGI [2]: 36 µM and 36.1 µM | GI50 [3]: 12.5 µM and 3.81 µM | TGI [3]: 26.6 µM and 9.98 µM | TGI [4]: 20.1 µM and 24.5 µM | TGI [5]: 31.5 µM and 31.7 µM | TGI [6]: 20.2 µM and 27.2 µM | TGI [7]: 5.87 µM and 6.81 µM | TGI [8]: 32.2 µM and 36.3 µM | GI50 [9]: 5.15 µM and 12.4 µM | TGI [9]: 17.5 µM and 24.9 µM

COc1cc2c(cc1OC)C(C(CBr)CBr)N(C1CCCC1)CC2 (configuration not stated)
TGI [1]: > 100 µM | TGI [2]: > 100 µM | TGI [3]: > 100 µM | TGI [5]: > 100 µM | TGI [6]: > 100 µM | TGI [7]: > 100 µM | TGI [8]: > 100 µM | TGI [9]: > 100 µM

COC(=O)/C(C#N)=C1\CCC(OC)N1C (configuration not stated)
TGI [1]: > 100 µM | TGI [2]: > 100 µM | TGI [3]: > 100 µM | TGI [4]: > 100 µM | TGI [5]: > 100 µM | TGI [6]: > 100 µM | TGI [7]: > 100 µM | TGI [8]: > 100 µM | TGI [9]: > 100 µM

CCC1CCCCN1CC(C(C)=O)C(c1ccccc1)c1c(O)c2ccccc2oc1=O (configuration not stated)
TGI [1]: > 100 µM | TGI [2]: > 100 µM | TGI [3]: > 100 µM | TGI [4]: > 100 µM | TGI [5]: > 100 µM | TGI [6]: > 100 µM | TGI [7]: > 100 µM | TGI [8]: > 100 µM | TGI [9]: > 100 µM
